According to the supplement of paper PMC10307832:

How the values were obtained:
Assay in all cases: relative viability (nuclei count vs DMSO), 5 days (fraction); higher = more cells survive
201T = system: 201T
Outline: (§1)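 Dosing by pin tool came one day after lung cancer cell lines were seeded in 1536-well plates, using either one drug or a fixed anchor-drug dose plus five library-drug doses (not always all listed) in √10 steps. After 5 days, nuclei were counted on 4× images. Relative viability is treated-well nuclei count divided by vehicle-well nuclei count, and values are medians of duplicate plates.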

COR-L 105 = system: COR-L 105
Outline: as §1

ChaGo-K-1 = system: ChaGo-K-1
Outline: as §1

EPLC-272H = system: EPLC-272H
Outline: as §1

H3255 = system: H3255
Outline: as §1

HCC-78 = system: HCC-78
Outline: as §1

HCC-827 = system: HCC-827
Outline: as §1

LC-2-ad = system: LC-2-ad
Outline: as §1

LCLC-97TM1 = system: LCLC-97TM1
Outline: as §1

NCI-H1666 = system: NCI-H1666
Outline: as §1

NCI-H1915 = system: NCI-H1915
Outline: as §1

NCI-H2087 = system: NCI-H2087
Outline: as §1

NCI-H2126 = system: NCI-H2126
Outline: as §1

NCI-H2347 = system: NCI-H2347
Outline: as §1

NCI-H23 = system: NCI-H23
Outline: as §1

NCI-H2405 = system: NCI-H2405
Outline: as §1

NCI-H520 = system: NCI-H520
Outline: as §1

NCI-H647 = system: NCI-H647
Outline: as §1

NCI-H650 = system: NCI-H650
Outline: as §1

NCI-H661 = system: NCI-H661
Outline: as §1

PC-14 = system: PC-14
Outline: as §1

RERF-LC-KJ = system: RERF-LC-KJ
Outline: as §1

O=c1cc(N2CCOCC2)oc2c(-c3cccc4c3sc3ccccc34)cccc12 + CC(C)C[C@H](NC(=O)[C@H](Cc1ccccc1)NC(=O)c1cnccn1)B(O)O [Bortezomib] (partner 0.002 µM)
relative viability (201T; first compound 0.01 µM): 1.07
relative viability (201T; first compound 0.03162 µM): 1.09
relative viability (201T; first compound 0.1 µM): 0.957
relative viability (201T; first compound 0.3162 µM): 1.08
relative viability (201T; first compound 1 µM): 1.1
relative viability (COR-L 105; first compound 0.01 µM): 0.793
relative viability (COR-L 105; first compound 0.03162 µM): 0.793
relative viability (COR-L 105; first compound 0.1 µM): 0.769
relative viability (COR-L 105; first compound 0.3162 µM): 0.895
relative viability (COR-L 105; first compound 1 µM): 0.807
relative viability (ChaGo-K-1; first compound 0.01 µM): 0.64
relative viability (ChaGo-K-1; first compound 0.03162 µM): 0.915
relative viability (ChaGo-K-1; first compound 0.1 µM): 0.897
relative viability (ChaGo-K-1; first compound 0.3162 µM): 1.04
relative viability (ChaGo-K-1; first compound 1 µM): 0.977
relative viability (EPLC-272H; first compound 0.01 µM): 0.903
relative viability (EPLC-272H; first compound 0.03162 µM): 0.916
relative viability (EPLC-272H; first compound 0.3162 µM): 0.854
relative viability (EPLC-272H; first compound 1 µM): 0.935
relative viability (H3255; first compound 0.01 µM): 0.696
relative viability (H3255; first compound 0.03162 µM): 0.806
relative viability (H3255; first compound 0.1 µM): 0.761
relative viability (H3255; first compound 0.3162 µM): 0.854
relative viability (H3255; first compound 1 µM): 0.604
relative viability (HCC-78; first compound 0.01 µM): 0.544
relative viability (HCC-78; first compound 0.03162 µM): 0.467
relative viability (HCC-78; first compound 0.1 µM): 0.566
relative viability (HCC-78; first compound 0.3162 µM): 0.482
relative viability (HCC-78; first compound 1 µM): 0.468
relative viability (HCC-827; first compound 0.01 µM): 1.02
relative viability (HCC-827; first compound 0.03162 µM): 0.976
relative viability (HCC-827; first compound 0.1 µM): 1.04
relative viability (HCC-827; first compound 0.3162 µM): 1.06
relative viability (HCC-827; first compound 1 µM): 1.02
relative viability (LC-2-ad; first compound 0.01 µM): 1.15
relative viability (LC-2-ad; first compound 0.1 µM): 1.09
relative viability (LC-2-ad; first compound 0.3162 µM): 0.993
relative viability (LC-2-ad; first compound 1 µM): 1.05
relative viability (LCLC-97TM1; first compound 0.01 µM): 0.678
relative viability (LCLC-97TM1; first compound 0.03162 µM): 0.535
relative viability (LCLC-97TM1; first compound 0.1 µM): 0.473
relative viability (LCLC-97TM1; first compound 0.3162 µM): 0.751
relative viability (LCLC-97TM1; first compound 1 µM): 0.406
relative viability (NCI-H1666; first compound 0.01 µM): 0.678
relative viability (NCI-H1666; first compound 0.03162 µM): 0.804
relative viability (NCI-H1666; first compound 0.1 µM): 0.909
relative viability (NCI-H1666; first compound 0.3162 µM): 0.703
relative viability (NCI-H1666; first compound 1 µM): 0.751
relative viability (NCI-H1915; first compound 0.01 µM): 0.994
relative viability (NCI-H1915; first compound 0.03162 µM): 1.01
relative viability (NCI-H1915; first compound 0.1 µM): 0.867
relative viability (NCI-H1915; first compound 0.3162 µM): 0.94
relative viability (NCI-H1915; first compound 1 µM): 0.995
relative viability (NCI-H2087; first compound 0.01 µM): 0.777
relative viability (NCI-H2087; first compound 0.03162 µM): 0.766
relative viability (NCI-H2087; first compound 0.1 µM): 0.855
relative viability (NCI-H2087; first compound 0.3162 µM): 0.953
relative viability (NCI-H2087; first compound 1 µM): 1.06
relative viability (NCI-H2126; first compound 0.01 µM): 1.14
relative viability (NCI-H2126; first compound 0.03162 µM): 1.11
relative viability (NCI-H2126; first compound 0.1 µM): 1.13
relative viability (NCI-H2126; first compound 0.3162 µM): 1.06
relative viability (NCI-H2126; first compound 1 µM): 1.14
relative viability (NCI-H2347; first compound 0.01 µM): 1.15
relative viability (NCI-H2347; first compound 0.03162 µM): 1.12
relative viability (NCI-H2347; first compound 0.1 µM): 0.838
relative viability (NCI-H2347; first compound 0.3162 µM): 0.835
relative viability (NCI-H2347; first compound 1 µM): 0.839
relative viability (NCI-H23; first compound 0.01 µM): 1.13
relative viability (NCI-H23; first compound 0.03162 µM): 1.08
relative viability (NCI-H23; first compound 0.3162 µM): 1.01
relative viability (NCI-H23; first compound 1 µM): 0.946
relative viability (NCI-H2405; first compound 0.01 µM): 1.01
relative viability (NCI-H2405; first compound 0.03162 µM): 0.941
relative viability (NCI-H2405; first compound 0.1 µM): 1.03
relative viability (NCI-H2405; first compound 0.3162 µM): 0.987
relative viability (NCI-H2405; first compound 1 µM): 0.988
relative viability (NCI-H520; first compound 0.01 µM): 0.66
relative viability (NCI-H520; first compound 0.03162 µM): 0.446
relative viability (NCI-H520; first compound 0.1 µM): 0.472
relative viability (NCI-H520; first compound 0.3162 µM): 0.64
relative viability (NCI-H520; first compound 1 µM): 0.752
relative viability (NCI-H647; first compound 0.01 µM): 1.01
relative viability (NCI-H647; first compound 0.03162 µM): 1.1
relative viability (NCI-H647; first compound 0.1 µM): 0.98
relative viability (NCI-H647; first compound 0.3162 µM): 1.02
relative viability (NCI-H647; first compound 1 µM): 0.924
relative viability (NCI-H650; first compound 0.01 µM): 0.845
relative viability (NCI-H650; first compound 0.03162 µM): 0.837
relative viability (NCI-H650; first compound 0.3162 µM): 1.12
relative viability (NCI-H650; first compound 1 µM): 0.632
relative viability (NCI-H661; first compound 0.01 µM): 0.681
relative viability (NCI-H661; first compound 0.03162 µM): 0.89
relative viability (NCI-H661; first compound 0.1 µM): 0.752
relative viability (NCI-H661; first compound 0.3162 µM): 0.714
relative viability (NCI-H661; first compound 1 µM): 0.756
relative viability (PC-14; first compound 0.01 µM): 0.954
relative viability (PC-14; first compound 0.03162 µM): 0.763
relative viability (PC-14; first compound 0.1 µM): 0.868
relative viability (PC-14; first compound 0.3162 µM): 0.772
relative viability (PC-14; first compound 1 µM): 0.864
relative viability (RERF-LC-KJ; first compound 0.01 µM): 1.1
relative viability (RERF-LC-KJ; first compound 0.03162 µM): 1.12
relative viability (RERF-LC-KJ; first compound 0.1 µM): 1.13
relative viability (RERF-LC-KJ; first compound 0.3162 µM): 1.22
relative viability (RERF-LC-KJ; first compound 1 µM): 1.09
